According to patent US20210346368A1, “ANTIBIOTIC SOLUTION AND METHOD OF INJECTION TO PREVENT OPHTHALMIC INFECTIONS” (priority 2017, published 2021):

Experiment: injection of moxifloxacin antibiotic solution into the anterior segment of the eye during surgery to prevent endophthalmitis
Format: in vivo
Procedure: Further details regarding the structure, preparation, and physical properties of moxifloxacin are provided in U.S. Pat. Nos. 4,990,517 and 5,607,942, and German application DE19937116, all of which are incorporated herein by reference. In one embodiment, the antibiotic solution may comprise […] of cyanocobalamin, or an amount sufficient to tint or color the resulting antibiotic solution. The antibiotic solution may further comprise any suitable carrier fluid (e.g., liquid diluents such as water, ethyl alcohol, or propylene glycol), so long as the resulting solution has osmotic values that are compatible with the aqueous humor of the eye and ophthalmic tissues. In one embodiment, the antibiotic solution is prepared and stored in a single-dose vial, without the need for preservatives. This allows the surgeon to provide an accurate concentration in sterile environments. Further, due to the antibiotic solution comprising cyanocobalamin, the resulting antibiotic solution is red in color. This provides a visual enhancement to the surgeon when injecting into the eye. For example, a surgeon would inject around 0.3 milliliters of the antibiotic solution (e.g., solution comprising moxifloxacin and cyanocobalamin) into the anterior segment of the eye during the intraoperative portion of cataract surgery. […]

In the case of `COc1c(N2C[C@@H]3CCCN[C@@H]3C2)c(F)cc2c(=O)c(C(=O)O)cn(C3CC3)c12` [moxifloxacin], the “effectiveness (preliminary results)” value (200 micrograms to 600 micrograms of moxifloxacin injected into the eye) is reported as “effective” and the risk of endophthalmitis (moxifloxacin injected into the anterior segment of the eye) is reported as “significantly reduced or eliminated altogether”.
